Measured values reported in patent US20260373156A1, “CANCER TREATMENTS USING MTA-COOPERATIVE PRMT5 INHIBITORS” (AMGEN INC., priority 2022, published 2026).
Where “and” joins values, the source holds several entries; their conditions need not be identical. Equal entries are not always repeated. Where two headings read alike, the source gives them in different places.

Columns and labels:
[1] = system: HCC1395 cells; assay: CellTiter-Glo viability and CalcuSyn synergy, PRMT5 inhibitor + olaparib, 6 days; conditions: hcc1395 cells, 8640 min, 0.7673 µM
[2] = system: H1650 cells; format: cell-based; conditions: 8640 min, 0.44 µM
Method: (§1) A MTAP-null NSCLC cancer cell line (H1650) was treated with the combination of Compound G and osimertinib for 6 days. Compound G was performed at a 1.9-fold dilution series and the combination partner was performed at 1.2 to 1.7 fold dilution series to create an 8×10 dose matrix including DMSO-only controls. Cell viability was measured by the CellTiter-Glo Luminescence assay. Raw luminescent values were converted to fraction affected (Fa) with the following equation: […]
(§2) Synergy analysis was performed using the CalcuSyn software to determine CI scores based on the drug concentrations used and corresponding Fa values.

[3] = system: A549 cells; assay: CellTiter-Glo viability and CalcuSyn synergy, PRMT5 inhibitor + trametinib, 6 days
[4] = system: H292 cells; assay: CellTiter-Glo viability and CalcuSyn synergy, PRMT5 inhibitor + palbociclib, 6 days; conditions: h292 cells, 8640 min, 0.1212 µM
[5] = system: MIAPACA2T2 cells; assay: CellTiter-Glo viability and CalcuSyn synergy, PRMT5 inhibitor + KIF18A, 6 days
[6] = system: A549 cells; assay: CellTiter-Glo viability and CalcuSyn synergy, PRMT5 inhibitor + palbociclib, 6 days; conditions: a549 cells, 8640 min, 0.437382 µM
[7] = system: H1650 cells; format: cell-based
Method: as §1, with “erlotinib” for “osimertinib”
as §2

[8] = system: MIAPACA2T2 cells; assay: CellTiter-Glo viability and CalcuSyn synergy, PRMT5 inhibitor + sotorasib, 6 days; conditions: miapaca2t2 cells, 8640 min, 0.4374 µM
[9] = system: MiaPaCa2 PDAC xenografts; set-up: species or system Female NOD/SCID mice; conditions: mouse, in vivo
Method: FIG. 6A: Mice were implanted with LU99 (NSCLC CDX) tumors, FIG. 6B: LU5268 (NSCLC PDX) tumors. FIG. 6C: MiaPaCa2 (PDAC CDX) tumors. Vehicle, Compound G, and sotorasib were dosed as indicated. Data represent mean±SD, n=10 for each group.
10 Female NOD/SCID mice were implanted with LU99 NSCLC, LU5268 NSCLC or MisPaCa2 PDAC tumor xenografts. Mean tumor volumes for each grouping were between 100-200 mm^3. Mice were allocated to the four different study groups by tumor volume and dosing was initiated with Vehicle, Compound G (100 mg/kg), sotorasib (100 mg/kg) orally once daily or a combination of Compound G (100 mg/kg) with sotorasib (100 mg/kg). Plotted data represents the TGI (tumor growth inhibition), n=10 for each group.

[10] = system: PSN1 cells; assay: CellTiter-Glo viability and CalcuSyn synergy, PRMT5 inhibitor + KIF18A, 6 days; conditions: psn1 cells, 8640 min, 0.0767 µM
[11] = system: LU99 cells; assay: CellTiter-Glo viability and CalcuSyn synergy, PRMT5 inhibitor + sotorasib, 6 days
[12] = system: MIAPACA2T2 cells; assay: CellTiter-Glo viability and CalcuSyn synergy, PRMT5 inhibitor + trametinib, 6 days
[13] = system: LU5268 NSCLC xenografts; conditions: mouse, in vivo
[14] = system: LU99 NSCLC xenografts; conditions: mouse, in vivo
[15] = system: A549 cells; assay: CellTiter-Glo viability and CalcuSyn synergy, PRMT5 inhibitor + KRAS G12X inhibitor, 6 days; conditions: a549 cells, 8640 min, 0.4374 µM
[16] = system: LU99 NSCLC xenografts; conditions: mouse, in vivo; remark: listed apart in the source

Nc1nc2cnc(C(=O)N3CCOC[C@@H]3c3ccc(C(F)(F)F)cc3)cc2c2c1COC2 [Compound G]
Combination Fa [1]: 0.6464 and 0.5971 and 0.5852 and 0.5488 and 0.55 and 0.7334 and 0.6661 | Combination Fa [2]: 0.74 and 0.73 and 0.69 and 0.67 and 0.66 and 0.88 and 0.76 | Computed CI value [3]: 0.276 and 0.365 and 0.349 and 0.48 and 0.512 and 0.43 and 0.384 | Combination Fa ([3]; a549 cells, 8640 min, 0.4374 µM): 0.8494 and 0.7817 and 0.7499 and 0.6788 and 0.6495 and 0.894 and 0.8631 | Combination Fa [4]: 0.8154 and 0.7885 and 0.7925 and 0.7748 and 0.7116 and 0.8564 and 0.824 | Computed CI value [5]: 0.561 and 0.6 and 0.594 and 0.774 and 0.68 and 1.044 and 0.802 | Combination Fa ([5]; miapaca2t2 cells, 8640 min, 0.437381 µM): 0.7856 and 0.6938 and 0.6123 and 0.4815 and 0.4538 and 0.85 and 0.8122 | Combination Fa [6]: 0.717 and 0.713 and 0.732 and 0.683 and 0.682 and 0.86 and 0.735 | Computed CI value [7]: 0.40 and 0.29 and 0.34 and 0.35 and 0.52 and 0.48 | Combination Fa ([7]; h1650 cells, 8640 min, 0.23 µM): 0.73 and 0.67 and 0.64 and 0.59 and 0.79 and 0.75 | Combination Fa [8]: 0.818 and 0.785 and 0.712 and 0.633 and 0.519 and 0.829 and 0.84 | tumor growth inhibition [9]: significantly inhibits tumor growth | Combination Fa [10]: 0.858 and 0.868 and 0.837 and 0.811 and 0.781 and 0.923 and 0.86 | Computed CI value [11]: 0.276 and 0.234 and 0.289 and 0.249 and 0.281 and 0.424 and 0.294 | Combination Fa ([11]; lu99 cells, 8640 min, 0.1458 µM): 0.817 and 0.821 and 0.794 and 0.804 and 0.787 and 0.825 | Computed CI value [12]: 0.579 and 0.774 and 0.806 and 0.84 and 0.868 and 0.784 and 0.557 | Combination Fa ([12]; miapaca2t2 cells, 8640 min, 0.83102 µM): 0.792 and 0.69 and 0.63 and 0.583 and 0.551 and 0.868 and 0.85 | tumor growth inhibition [13]: significantly inhibits tumor growth | tumor growth inhibition [14]: significantly inhibits tumor growth | Combination Fa [15]: 0.8549 and 0.7807 and 0.755 and 0.7181 and 0.6897 and 0.833 and 0.8551 | anti-tumor activity [16]: significant anti-tumor activity versus either single agent alone
